This data set can be described thus: Human HepG2 cell viability assay in 384 well format. Format: toxicity, cell-based. The arrangement: dose 125 nL, time 70.5 hour; concentration not given beside the values. The settings on record: HepG2 cells, read-out: Inhibition.

Take `Cc1nocc1C(=O)N1CCc2c(CN(C)C)nn(C)c2C1`: the cytotoxicity at 70.5 h was -13.6%.

`CC(C)(C)C(=O)N1CC[C@@H]2[C@H](CC1)N(S(C)(=O)=O)CCS2(=O)=O`: the cytotoxicity at 70.5 h was -10.7%. Then `Cc1cccc(NC(=O)N2CCC3(CC(=O)N(c4ccsc4)C3)C2)c1` (stereo unspecified), with -5.62%; and `CNC(=O)CN1CCOCC2(CCCN(Cc3ccoc3)C2)C1` (stereo unspecified), with -8.87%.

As to `CC(=O)N1CC(=O)N(c2ccsc2)CC12CCN(Cc1ccoc1)C2` (stereo unspecified), the cytotoxicity at 70.5 h was -11.1%. For the molecule `CN1CCN(C(=O)[C@H]2CC[C@@H]3[C@@H](CCN3Cc3nccs3)O2)CC1`, the cytotoxicity at 70.5 h is -13.2%. `O=C(NC1CCCC1)C1Cc2nc(-c3ccsc3)sc2N1CC1CC1` (stereo unspecified): the cytotoxicity at 70.5 h came out at 9.52%.

Consider `O=C(Cn1ccc2ccccc21)NCc1ccc(C(=O)O)cc1`, for which the cytotoxicity at 70.5 h was -10.6%. In the case of `COc1cc(OC)c(C2SCC(=O)Nc3n[nH]cc32)cc1OC` (stereo unspecified), the cytotoxicity at 70.5 h was -1.01%. `Cc1cccnc1NC(=O)CC1(Cn2cnnn2)CCCCC1`: the cytotoxicity at 70.5 h was -7.45%. Under `O=C(COc1coc(CN2CCCCCC2)cc1=O)c1ccccc1` stands 25.4%; under `Cc1cccn2c(=O)cc(OC(=O)c3ccccc3)nc12`, -17.1%; under `O=C1N(Cc2cccnc2)CCC12CCCNC2` (stereo unspecified), 10.6%. As to `CS(=O)(=O)N1Cc2ccccc2C2(CCN(C(=O)c3ccno3)CC2)C1`, the cytotoxicity at 70.5 h was 7.95%.

`COCCN1C[C@@H]2CN(C(=O)[C@H]3CCCO3)C[C@@H]2C1=O`: the cytotoxicity at 70.5 h is -15.9%. `CC(=O)N1[C@@H](C(=O)NCC2CC2)C[C@@H]2CN(Cc3ccco3)C[C@@H]21`: the cytotoxicity at 70.5 h came to 0.192%.

Turning to `COC1CC2(CCN(Cc3ccc4c(c3)OCO4)CC2)C1`, the cytotoxicity at 70.5 h was -12.6%.

As for `CCN1C(=O)CCCC12CCCN(C(=O)c1conc1C)C2` (stereo unspecified), the cytotoxicity at 70.5 h is -12.9%.

As for `O=C(Nc1ccccc1)C1=CC2(CCNCC2)c2ccccc21`, the cytotoxicity at 70.5 h was 3.63%. Then `O=C(NC1CC1)c1ccc2ccc(N3CCN(CC4CC4)CC3)n2c1`, with 6.77%. `O=C(c1cccs1)N1CC[C@H](O)[C@@H]1Cc1ccccc1`: the cytotoxicity at 70.5 h was 29.4%. For the molecule `O=C1CC(c2ccccc2)C2(CCN(Cc3ccccn3)CC2)N1` (stereo unspecified), the cytotoxicity at 70.5 h is -7.79%. In the case of `CN(CC1CC1)c1ccc2ccc(C(=O)NCCN3CCOCC3)cn12`, the cytotoxicity at 70.5 h is -5.52%. `Cc1nc(N2CCCC2)nc2c1CN(C(=O)N1CCOCC1)CC2`: the cytotoxicity at 70.5 h is -14.3%. Under `CC(C)CN1CCC2(CCN(Cc3ccsc3)CC2)C1=O` stands 6.07%.

Consider `COc1ccc(S(=O)(=O)N2CCCC3(CCCN3S(C)(=O)=O)C2)cc1` (stereo unspecified), for which the cytotoxicity at 70.5 h came out at 8.26%.

`CS(=O)(=O)N1CCCC12CCCN(S(=O)(=O)c1cc(F)cc(F)c1)C2` (stereo unspecified): the cytotoxicity at 70.5 h is -5.59%.

As to `CNC(=O)[C@@]12CCC3(CCN(S(C)(=O)=O)CC3)[C@@H]1CN(S(C)(=O)=O)C2`, the cytotoxicity at 70.5 h amounted to 1.46%. Under `Cc1nc(C)n(CC2CN(c3ncccn3)Cc3nccn3C2)n1` (stereo unspecified) stands -8.98%. Under `COCc1ncn2c1CN(C(=O)C1CC=CC1)CC2` stands -8.8%; under `O=C(Cc1ccccc1)N1CCC2(CC(=O)N(c3cccc(F)c3)C2)C1` (stereo unspecified), -4.78%. For the molecule `O=C(c1ccoc1)N1CCC2(CC1)C(=O)Nc1ccccc12`, the cytotoxicity at 70.5 h is -2.01%. For `CCS(=O)(=O)N1Cc2nccn2CC(Cn2nc(C)nc2C)C1` (stereo unspecified), the cytotoxicity at 70.5 h is -13.6%. Then `CN(C)C(=O)COC[C@]12COC[C@H]1CN(Cc1ccoc1)C2`, with -6.16%. In the case of `O=C(c1cncnc1)N1CCCC(c2nccs2)C1` (stereo unspecified), the cytotoxicity at 70.5 h was -3.47%. Take `c1cc(CN2CCCC(c3ccnc4nccn34)C2)ccn1` (stereo unspecified): the cytotoxicity at 70.5 h was -3.33%.

On to `Cc1cc(C)n(C2CCN(S(C)(=O)=O)CC2)n1`, for which the cytotoxicity at 70.5 h came to 9.79%. On to `O=S(=O)(N1CCCC1)N1CC(c2ccnc(Nc3ccccn3)n2)C1`, for which the cytotoxicity at 70.5 h stood at 8.07%.

For the molecule `O=S1(=O)NC(c2ccnc(N3CCCCC3)n2)=Nc2ccccc21`, the cytotoxicity at 70.5 h was 7.4%. Then `CN(C)c1cc(C2CCCN2C(=O)c2noc3c2CCCC3)ccn1` (stereo unspecified), with -6.7%; and `COc1ccc2c(c1)c(-c1nc(C)ncc1CN)cn2C`, with 13.5%. Then `Cc1cc(C)nc(N2CCC(c3ccnc(N(C)C)n3)CC2)n1`, with -3.9%; and `COc1ccccc1N1CC(NC(=O)Cn2cc(C)nn2)CC1=O` (stereo unspecified), with -7.03%. As for `CCOc1ccc(Cl)cc1C1CCCN1` (stereo unspecified), the cytotoxicity at 70.5 h is -16.4%. Regarding `NC(=O)N1CC2(CCNCC2)c2cc(Cl)ccc21`, the cytotoxicity at 70.5 h was -0.465%. Then `C/C(=C\c1ccccc1)CN1CCCC(c2nnc3n2CCNCC3)C1` (stereo unspecified), with -6.58%; and `COc1ccccc1CN1CCCCC1c1n[nH]cc1-c1cc(C)no1` (stereo unspecified), with -6.18%. Consider `CN(C)c1ncc(-c2cncn2CCc2ccc3c(c2)OCCO3)cn1`, for which the cytotoxicity at 70.5 h was -7.82%. Under `Cc1nn(C)cc1-c1cncn1CCc1ccc2c(c1)OCCO2` stands -9.48%; under `CCc1ccc(CN2CCCCC2c2n[nH]cc2-c2cc(C)no2)cc1` (stereo unspecified), -5.56%; under `CCn1nc(C)c(-c2cncn2CCN(C)C2CCCC2)c1C`, -7.35%. In the case of `O=C(CC1CCCC1)N1C[C@H](Oc2cccnc2)[C@H]2OCCC[C@H]21`, the cytotoxicity at 70.5 h is -16.9%. In the case of `O=C([C@H]1CCCO1)N1CCOC2(CCCN(c3ncccc3F)C2)C1` (stereo partly specified), the cytotoxicity at 70.5 h was -15.7%. Turning to `CO[C@H]1CN(C(=O)c2cccnc2)[C@@H]2CCCO[C@H]12`, the cytotoxicity at 70.5 h was -11.9%.

Take `COCC1Cn2nnc(-c3cnn(C)c3)c2CN1Cc1cccs1` (stereo unspecified): the cytotoxicity at 70.5 h is -12.1%. Under `CO[C@H]1CC[C@H]2[C@H]1OCCN2Cc1ccc(F)cc1` stands 9.89%. Under `O=C(Nc1cccnc1)C1Cc2nc(-c3ccsc3)sc2N1CC1CC1` (stereo unspecified) stands 15.3%; under `Cc1ccccc1C(=O)N1C[C@@H]2OCCN(c3ncccn3)[C@@H]2C1`, 17.4%.

`CC(C)C(=O)N1CCC[C@]2(C(=O)N(C)C)CN(c3ccccn3)C[C@@H]2C1`: the cytotoxicity at 70.5 h turned out to be 11.4%. Take `COc1cc(N2CC[C@@H]3O[C@H](C(=O)N(C)C)C[C@@H]32)ncn1`: the cytotoxicity at 70.5 h was -17.2%. Under `CCC(=O)N1CCC[C@]2(C(=O)N(C)C)CN(c3ccccn3)C[C@@H]2C1` stands -9.46%; under `COc1ccc(C[C@H]2CN(C(=O)c3ccncc3)CC[C@@H]2OC)cc1`, 18.8%. Under `C[C@@H]1CN(C(=O)c2cccs2)C[C@]12CCN(CCN(C)C)C2=O` stands 21.2%; under `O=C1CCCN1Cc1nnc2n1CCN(Cc1ccoc1)CC2`, 30%; under `CC[C@@H]1N(Cc2ccsc2)CCC[C@]12CCC(=O)N2C`, 18.9%. As to `CNC(=O)CN1CCCC12CCN(C(=O)c1ccc(F)cc1)CC2`, the cytotoxicity at 70.5 h is -11%.

Turning to `CCOC1COC2(CCN(Cc3cccc(F)c3)CC2)C1` (stereo unspecified), the cytotoxicity at 70.5 h was -12%. Then `CC[C@@H]1N(Cc2ccsc2)CCC[C@]12CCC(=O)N2CCOC`, with -17.5%. On to `COc1ccc(C[C@H]2CN(C(=O)CN(C)C)CC[C@H]2OC)cc1`, for which the cytotoxicity at 70.5 h was -6.67%. Under `c1ccc(N2CCCC3(CCN(Cc4cccs4)C3)C2)nc1` (stereo unspecified) stands 33.5%. Under `CN(C)CCN1CCC2(CCN(C(=O)c3ccc(F)cc3)CC2)C1=O` stands -8.17%; under `O=C(C1CCCCC1)N1CCC2(CCCN2CC2CC2)CC1`, -2.81%; under `CN(C)C(=O)CN1C(=O)CCC12CCN(Cc1ccc(F)cc1)CC2`, 5.3%. Under `Cc1ccc(C(=O)N2CCC3(CC2)CC(N2CCCC2)C3)cc1` stands -10.8%; under `COc1ccc(CN2CCN(C(C)=O)CC3(CC(=O)N(C)C3)C2)cc1` (stereo unspecified), -0.064%. Turning to `Cn1cc(CN2CCCC3(CCN(c4nncs4)C3)C2)cn1` (stereo unspecified), the cytotoxicity at 70.5 h is -0.185%.

As to `CNC(=O)N1CCc2cc(C(=O)N(C)C)c(NCC3CC3)nc2CC1`, the cytotoxicity at 70.5 h was -12%.

Regarding `O=C(NCc1cnc2n1CCN(Cc1ccsc1)CC2)C1CCC1`, the cytotoxicity at 70.5 h is -10.8%. On to `CCS(=O)(=O)N[C@@H]1CN(Cc2cc(C)on2)C[C@@H]2CCCO[C@@H]21`, for which the cytotoxicity at 70.5 h was -10.1%. Under `CN(C)C(=O)COCc1cncc2c1CCN(Cc1ccccn1)C2` stands -7.2%; under `CNC(=O)CN1CCOCC2(CCCN(Cc3ccc(F)cc3)C2)C1` (stereo unspecified), -9.75%; under `Cc1nc(CN2CCC3(CCN(Cc4cnn(C)c4)CC3)C2=O)cs1`, 10.4%. As for `CCOCC1c2c(cnn2CC2CC2)CCN1Cc1nccs1` (stereo unspecified), the cytotoxicity at 70.5 h is -9.55%. Consider `CN(Cc1ccco1)C1COC2(CCN(Cc3nccs3)CC2)C1` (stereo unspecified), for which the cytotoxicity at 70.5 h is -21.8%.

`c1cncc(OCC2CN(Cc3nccs3)Cc3nccn3C2)c1` (stereo unspecified): the cytotoxicity at 70.5 h is -15.5%. Under `Cc1nc(CN2CCC3(CCCN(Cc4ccoc4)C3)C2=O)cs1` (stereo unspecified) stands 11.4%. Under `O=C(c1cccnc1)N1Cc2nccn2CC(COc2cccnc2)C1` (stereo unspecified) stands -15.2%. On to `C[C@@H]1CN(Cc2ccsc2)C[C@]12CCN(Cc1cccnc1)C2=O`, for which the cytotoxicity at 70.5 h turned out to be 39%. Under `Cc1cccc(CN2C(=O)CCC23CCN(Cc2cccn2C)CC3)n1` stands -3.65%; under `CN(C)CCN1C(=O)CCC12CCN(C(=O)c1cccnc1)CC2`, -4%.

Turning to `CC(C)CN1CCN(C)C2(CCN(Cc3ccsc3)CC2)C1=O`, the cytotoxicity at 70.5 h turned out to be 0.403%. Regarding `CCN1CCC2(CCC(=O)N2Cc2cccc(C)n2)CC1`, the cytotoxicity at 70.5 h is -4.89%. For `Cc1cc(CN2C[C@@H]3CCCO[C@@H]3[C@H](Nc3ccccn3)C2)no1`, the cytotoxicity at 70.5 h was -8.77%.

On to `CN(C)CCOCc1cncc2c1CCN(Cc1ccccn1)C2`, for which the cytotoxicity at 70.5 h is -10.9%.

With `O=C(CN(C1=NCCCC1)c1ccccc1)c1ccccc1`, the cytotoxicity at 70.5 h is 25.2%. Regarding `CCOc1ccc(N(CC(=O)c2ccccc2)C2=NCCCCC2)cc1`, the cytotoxicity at 70.5 h is -9.89%.

Values taken from ChEMBL document CHEMBL3507680, “University of Dundee, Gates Library screen for HepG2 cell viability”.
